Experimental findings from ChEMBL document CHEMBL5465560, “Selectivity Literature for EUbOPEN Chemogenomic Library” (2024) are described below.

pIC50: −log10 of the molar value. Bounds are passed on as bounds.

The target of experiment [1] is Protein arginine N-methyltransferase 5 (Homo sapiens, UniProt O14744). Description: Selectivity interaction (Methyltransferase screen (radiometric assays, panel of 8 PRMTs, 21 protein lysine methyltransferases, 3 DNA methyltransferases, and one RNA methyltransferase)) EUB0000271b PRMT5.
Protein arginine N-methyltransferase 5, sequence (O14744 whole entry): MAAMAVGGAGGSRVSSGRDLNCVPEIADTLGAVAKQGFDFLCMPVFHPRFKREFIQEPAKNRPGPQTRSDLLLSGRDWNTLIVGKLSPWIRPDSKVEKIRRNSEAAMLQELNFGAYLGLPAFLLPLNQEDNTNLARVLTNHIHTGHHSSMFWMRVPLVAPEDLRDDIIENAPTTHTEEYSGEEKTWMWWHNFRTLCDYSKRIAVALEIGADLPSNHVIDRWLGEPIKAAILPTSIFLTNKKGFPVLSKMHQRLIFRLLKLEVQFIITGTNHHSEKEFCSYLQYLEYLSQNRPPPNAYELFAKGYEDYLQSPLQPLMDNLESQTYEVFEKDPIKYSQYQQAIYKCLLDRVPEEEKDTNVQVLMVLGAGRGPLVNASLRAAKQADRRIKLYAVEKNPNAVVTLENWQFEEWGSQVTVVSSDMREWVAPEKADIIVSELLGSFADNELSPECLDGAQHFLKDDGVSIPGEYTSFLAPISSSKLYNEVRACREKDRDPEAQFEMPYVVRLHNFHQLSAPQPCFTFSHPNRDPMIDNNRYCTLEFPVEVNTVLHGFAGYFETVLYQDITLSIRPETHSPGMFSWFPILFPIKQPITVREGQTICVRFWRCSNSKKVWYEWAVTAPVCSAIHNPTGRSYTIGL
Experiment [2] concerns the target T1, Phosphatidylinositol 5-phosphate 4-kinase type-2 beta (Homo sapiens) (UniProt P78356).
T1 sequence (whole entry): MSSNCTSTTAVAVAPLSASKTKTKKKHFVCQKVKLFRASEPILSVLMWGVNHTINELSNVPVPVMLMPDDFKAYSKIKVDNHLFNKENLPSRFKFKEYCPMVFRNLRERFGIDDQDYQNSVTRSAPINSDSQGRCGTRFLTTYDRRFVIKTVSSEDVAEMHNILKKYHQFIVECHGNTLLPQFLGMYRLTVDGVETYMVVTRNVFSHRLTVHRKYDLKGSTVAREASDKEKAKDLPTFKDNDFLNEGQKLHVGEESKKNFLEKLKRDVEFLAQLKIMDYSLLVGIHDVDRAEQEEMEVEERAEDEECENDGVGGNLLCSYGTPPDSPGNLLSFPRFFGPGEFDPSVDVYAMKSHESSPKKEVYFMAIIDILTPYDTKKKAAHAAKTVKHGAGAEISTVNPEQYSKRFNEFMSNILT
To be noted: at 10 µM.

For experiment [3], the target named is T2, Serine/threonine-protein kinase Nek11 (Homo sapiens) (UniProt Q8NG66).
T2 sequence (whole entry): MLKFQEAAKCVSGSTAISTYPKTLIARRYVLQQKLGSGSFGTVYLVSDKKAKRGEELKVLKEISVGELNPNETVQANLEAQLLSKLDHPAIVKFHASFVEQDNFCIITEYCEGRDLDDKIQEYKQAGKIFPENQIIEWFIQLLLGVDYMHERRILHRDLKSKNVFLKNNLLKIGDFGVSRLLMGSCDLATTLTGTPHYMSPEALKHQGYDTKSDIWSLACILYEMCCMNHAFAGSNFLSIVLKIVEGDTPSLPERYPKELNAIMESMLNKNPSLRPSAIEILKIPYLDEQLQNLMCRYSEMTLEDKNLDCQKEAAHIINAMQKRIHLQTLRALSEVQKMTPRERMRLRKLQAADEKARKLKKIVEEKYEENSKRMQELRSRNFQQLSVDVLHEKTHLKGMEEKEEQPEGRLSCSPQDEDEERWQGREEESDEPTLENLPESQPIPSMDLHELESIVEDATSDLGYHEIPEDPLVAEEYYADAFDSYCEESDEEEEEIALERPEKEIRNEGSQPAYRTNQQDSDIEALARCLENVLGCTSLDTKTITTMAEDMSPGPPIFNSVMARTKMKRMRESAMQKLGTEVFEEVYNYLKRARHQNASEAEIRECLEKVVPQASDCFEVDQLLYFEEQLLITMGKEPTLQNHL
The note with it: at 10 µM.

Experiment [4] addresses T3, Ribosomal protein S6 kinase alpha-3 (Homo sapiens, UniProt P51812). Nature of the experiment: Selectivity interaction (KinomeScan (DiscoverX)) EUB0000229b RPS6KA3. The note with it: at 10 µM.
Experiment [5] has as its target Serine/threonine-protein kinase WNK4 (Homo sapiens) (UniProt Q96J92). Nature of the experiment: Selectivity interaction (KinomeScan (DiscoverX)) EUB0000229b WNK4. To be noted: at 10 µM.
For experiment [6], the target named is Kappa-type opioid receptor (Homo sapiens, UniProt P41145). Description: Selectivity interaction (Opiate Kappa receptor assay, human recombinant ) EUB0000877a OPRK1.
For experiment [7], the target named is T3, Ribosomal protein S6 kinase alpha-3. Nature of the experiment: Selectivity interaction (ActivX KiNativ screen (kinase selectivity in THP-1 cell lysates)) EUB0000639a RPS6KA3. The class given is subcellular. The note with it: lysate, at 0.01 µM.
Experiment [8] addresses Serine/threonine-protein kinase Chk2 (Homo sapiens) (UniProt O96017). Nature of the experiment: Selectivity interaction (ActivX KiNativ screen (kinase selectivity in THP-1 cell lysates)) EUB0000639a CHEK2. The class given is subcellular. The note with it: lysate, at 1 µM.
In the next experiment the target is Aurora kinase B (Homo sapiens, UniProt Q96GD4). Description: Selectivity interaction (Kinase panel (Enzyme activity assay)) EUB0000612a AURKB.
Aurora kinase B, sequence (Q96GD4 whole entry): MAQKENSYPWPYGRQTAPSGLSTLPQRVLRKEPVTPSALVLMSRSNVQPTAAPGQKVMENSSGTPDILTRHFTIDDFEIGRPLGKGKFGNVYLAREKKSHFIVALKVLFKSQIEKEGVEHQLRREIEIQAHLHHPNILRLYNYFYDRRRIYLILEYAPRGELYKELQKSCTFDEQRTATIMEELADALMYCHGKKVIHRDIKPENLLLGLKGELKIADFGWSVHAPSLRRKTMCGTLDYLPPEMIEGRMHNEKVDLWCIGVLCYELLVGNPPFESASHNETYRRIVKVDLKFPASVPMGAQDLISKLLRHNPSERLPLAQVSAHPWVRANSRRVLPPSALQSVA
Experiment [9] addresses T1, Phosphatidylinositol 5-phosphate 4-kinase type-2 beta (Homo sapiens). Nature of the experiment: Selectivity interaction (KinomeScan (DiscoverX)) EUB0000695a PIP4K2B. The note with it: at 100 nM.
Experiment [10] has as its target Nuclear body protein SP140-like protein (Homo sapiens) (UniProt Q9H930). Description: Selectivity interaction (Bromodomain panel (DSF asssay)) EUB0000270b SP140L.
The target in experiment [11] is Receptor tyrosine-protein kinase erbB-2 (Homo sapiens, UniProt P04626). Description: Selectivity interaction (KinomeScan (DiscoverX)) EUB0000092b ERBB2. The note with it: at 10 µM.
Receptor tyrosine-protein kinase erbB-2, sequence (P04626 whole entry): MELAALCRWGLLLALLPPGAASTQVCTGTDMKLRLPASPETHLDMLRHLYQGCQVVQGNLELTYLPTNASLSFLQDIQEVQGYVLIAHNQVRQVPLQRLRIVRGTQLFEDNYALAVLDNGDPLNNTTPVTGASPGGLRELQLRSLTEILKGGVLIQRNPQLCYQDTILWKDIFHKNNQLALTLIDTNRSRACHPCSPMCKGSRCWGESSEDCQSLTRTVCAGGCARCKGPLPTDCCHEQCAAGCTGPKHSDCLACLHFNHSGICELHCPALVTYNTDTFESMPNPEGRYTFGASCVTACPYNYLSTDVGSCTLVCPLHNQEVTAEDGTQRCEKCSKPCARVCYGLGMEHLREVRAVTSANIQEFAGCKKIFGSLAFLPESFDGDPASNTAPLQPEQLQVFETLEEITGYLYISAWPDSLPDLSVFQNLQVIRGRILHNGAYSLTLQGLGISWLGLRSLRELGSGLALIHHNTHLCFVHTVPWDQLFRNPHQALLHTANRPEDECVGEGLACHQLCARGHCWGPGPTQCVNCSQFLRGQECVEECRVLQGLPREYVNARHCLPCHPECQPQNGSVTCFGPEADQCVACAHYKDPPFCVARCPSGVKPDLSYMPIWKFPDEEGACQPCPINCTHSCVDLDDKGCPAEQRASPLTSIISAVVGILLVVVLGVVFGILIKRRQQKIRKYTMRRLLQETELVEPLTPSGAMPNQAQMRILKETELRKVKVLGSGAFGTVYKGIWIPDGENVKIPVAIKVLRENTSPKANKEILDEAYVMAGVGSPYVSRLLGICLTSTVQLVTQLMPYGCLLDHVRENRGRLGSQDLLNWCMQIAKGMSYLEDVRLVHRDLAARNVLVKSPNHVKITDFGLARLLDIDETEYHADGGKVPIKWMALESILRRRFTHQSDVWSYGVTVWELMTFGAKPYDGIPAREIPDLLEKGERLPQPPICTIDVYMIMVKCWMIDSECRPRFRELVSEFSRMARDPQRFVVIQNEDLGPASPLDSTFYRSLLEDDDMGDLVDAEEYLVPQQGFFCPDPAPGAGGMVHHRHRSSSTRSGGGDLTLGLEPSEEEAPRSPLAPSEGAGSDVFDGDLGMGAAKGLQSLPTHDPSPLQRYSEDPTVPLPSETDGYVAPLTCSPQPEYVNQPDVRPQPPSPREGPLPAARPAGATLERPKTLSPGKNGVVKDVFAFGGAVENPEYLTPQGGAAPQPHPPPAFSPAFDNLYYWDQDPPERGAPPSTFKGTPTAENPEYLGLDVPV
Experiment [12] addresses Tyrosine-protein kinase Srms (Homo sapiens) (UniProt Q9H3Y6). Nature of the experiment: Selectivity interaction (KinomeScan (DiscoverX)) EUB0000092b SRMS. The note with it: at 10 µM.

T3 sequence (P51812 whole entry): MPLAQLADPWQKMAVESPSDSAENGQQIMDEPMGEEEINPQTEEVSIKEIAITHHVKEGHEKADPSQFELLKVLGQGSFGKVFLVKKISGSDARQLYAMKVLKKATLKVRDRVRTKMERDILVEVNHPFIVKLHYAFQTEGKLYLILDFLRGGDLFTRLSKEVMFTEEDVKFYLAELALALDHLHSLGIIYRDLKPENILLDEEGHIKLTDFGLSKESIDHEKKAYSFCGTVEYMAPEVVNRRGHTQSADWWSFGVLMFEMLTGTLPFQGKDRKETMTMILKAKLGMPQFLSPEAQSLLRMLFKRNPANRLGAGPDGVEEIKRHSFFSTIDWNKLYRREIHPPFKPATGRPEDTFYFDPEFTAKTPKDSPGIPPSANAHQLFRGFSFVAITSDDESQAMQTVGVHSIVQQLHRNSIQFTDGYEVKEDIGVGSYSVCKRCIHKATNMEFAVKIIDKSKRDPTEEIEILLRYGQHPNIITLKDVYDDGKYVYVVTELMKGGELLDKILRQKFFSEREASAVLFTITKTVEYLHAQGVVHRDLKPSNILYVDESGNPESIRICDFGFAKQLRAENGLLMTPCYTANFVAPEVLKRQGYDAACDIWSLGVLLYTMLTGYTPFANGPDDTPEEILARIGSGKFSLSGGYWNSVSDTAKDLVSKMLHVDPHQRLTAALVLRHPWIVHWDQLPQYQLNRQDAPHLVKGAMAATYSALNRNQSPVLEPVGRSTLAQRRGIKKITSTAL
Tyrosine-protein kinase Srms (Homo sapiens), sequence (Q9H3Y6 whole entry): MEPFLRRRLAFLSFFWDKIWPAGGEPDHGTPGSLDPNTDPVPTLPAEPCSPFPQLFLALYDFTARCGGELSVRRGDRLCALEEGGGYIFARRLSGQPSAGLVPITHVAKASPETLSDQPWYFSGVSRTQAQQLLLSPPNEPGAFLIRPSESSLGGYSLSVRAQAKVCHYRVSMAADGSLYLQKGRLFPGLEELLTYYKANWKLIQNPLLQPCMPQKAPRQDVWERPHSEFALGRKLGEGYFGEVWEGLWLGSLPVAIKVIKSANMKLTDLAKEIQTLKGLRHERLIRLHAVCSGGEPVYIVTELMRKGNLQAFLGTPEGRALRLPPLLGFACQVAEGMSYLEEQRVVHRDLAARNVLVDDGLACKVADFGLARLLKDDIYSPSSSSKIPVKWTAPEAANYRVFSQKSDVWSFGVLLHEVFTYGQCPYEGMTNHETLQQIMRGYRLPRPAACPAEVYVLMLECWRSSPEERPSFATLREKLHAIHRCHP
Serine/threonine-protein kinase WNK4 (Homo sapiens), sequence (Q96J92 whole entry): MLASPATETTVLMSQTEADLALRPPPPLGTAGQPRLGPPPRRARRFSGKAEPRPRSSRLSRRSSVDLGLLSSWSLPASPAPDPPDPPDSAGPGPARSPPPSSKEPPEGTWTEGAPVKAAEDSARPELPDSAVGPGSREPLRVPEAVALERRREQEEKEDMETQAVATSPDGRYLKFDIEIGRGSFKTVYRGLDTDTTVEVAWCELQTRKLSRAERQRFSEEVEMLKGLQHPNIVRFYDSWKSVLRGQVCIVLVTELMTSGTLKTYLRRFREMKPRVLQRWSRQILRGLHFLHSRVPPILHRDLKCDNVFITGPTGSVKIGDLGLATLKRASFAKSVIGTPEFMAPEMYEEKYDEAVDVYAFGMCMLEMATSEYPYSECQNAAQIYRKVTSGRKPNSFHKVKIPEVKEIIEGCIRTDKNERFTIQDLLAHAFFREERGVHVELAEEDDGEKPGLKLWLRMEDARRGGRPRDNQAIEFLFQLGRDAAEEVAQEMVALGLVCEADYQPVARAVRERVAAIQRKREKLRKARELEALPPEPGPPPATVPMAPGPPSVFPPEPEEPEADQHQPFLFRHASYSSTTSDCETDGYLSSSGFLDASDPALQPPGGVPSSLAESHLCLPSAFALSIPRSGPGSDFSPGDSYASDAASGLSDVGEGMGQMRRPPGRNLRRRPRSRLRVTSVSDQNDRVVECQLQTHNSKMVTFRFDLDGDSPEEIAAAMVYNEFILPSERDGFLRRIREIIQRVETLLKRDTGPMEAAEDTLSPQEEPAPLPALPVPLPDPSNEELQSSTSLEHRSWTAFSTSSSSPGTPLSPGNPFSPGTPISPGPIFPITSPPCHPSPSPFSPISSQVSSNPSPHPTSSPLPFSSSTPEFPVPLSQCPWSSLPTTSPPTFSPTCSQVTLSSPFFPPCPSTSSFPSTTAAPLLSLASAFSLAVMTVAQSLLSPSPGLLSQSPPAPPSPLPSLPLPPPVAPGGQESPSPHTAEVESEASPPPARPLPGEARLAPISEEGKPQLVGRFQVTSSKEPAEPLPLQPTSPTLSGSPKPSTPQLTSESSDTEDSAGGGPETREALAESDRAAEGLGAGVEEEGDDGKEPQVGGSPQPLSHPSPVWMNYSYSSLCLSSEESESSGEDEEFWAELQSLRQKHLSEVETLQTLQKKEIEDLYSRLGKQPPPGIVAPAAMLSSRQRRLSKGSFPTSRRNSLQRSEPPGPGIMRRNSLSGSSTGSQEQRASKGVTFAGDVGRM

As for `Cc1cc(C)cc([C@@H]2c3cc(C)ccc3NC(=O)CN2C(=O)c2ccc(Br)s2)c1`, the % of activity in experiment [1] (at 1 µM) worked out at 102%; in [1] (at 10 µM) it was 100%.
For the compound `Cc1cc([C@@H](C)Nc2ccccc2C(=O)O)c2nc(N3CCOCC3)cc(=O)n2c1` [AZD-6482], the % of control in experiment [2] and in experiment [3] was 100% throughout.
On to `COc1cc(N(C)c2ccnc3ccc(C(F)(F)F)cc23)cc(OC)c1OC`, for which the figures for the % binding in [4] and in [5] were 71% and 100%, respectively.
A word on the pIC50: it is −log10 of the IC50, conventionally taken in molar units. Turning to `CCC(=O)N1CC[C@H](Nc2ncnc3c2CN(c2cnc(OC)c(C(F)(F)F)c2)CC3)C1` [LENIOLISIB], the pIC50 in experiment [6] was under 4.52.
`CC[C@@H]1[C@H](F)C(=O)N[C@@H]1COc1nccc2cc(C(N)=O)c(OC)cc12` [ZIMLOVISERTIB]: the % of inhibition in [7] amounted to 17.5%; in [8] it was 22.6%.
Compound `CCc1cccc(CC)c1NC(=O)c1nn(C)c2c1CCc1cnc(Nc3ccc(C(=O)NC4CCN(C)CC4)cc3OC(F)(F)F)nc1-2` showed a pIC50 against Aurora kinase B of under 5.00.
Turning to `Cc1cc(F)c(C(=O)Nc2cccc(-c3nncn3C(C)C)n2)cc1-n1cnc(C2CC2)c1`, the % of control in experiment [9] was 92%.
Compound `Cc1cc(CN)cc(C)c1-c1ncn(C)c1-c1cncn1C` yielded a dTM in experiment [10] of -2.98 K.
As for `CCC(=O)N1CCN(c2ccc(-n3c(=O)ccc4cnc5ccc(-c6cnc7ccccc7c6)cc5c43)cc2C(F)(F)F)CC1`, the % of control in [11] is 91%; in experiment [12], 92%.
